This note sets out measurements from ChEMBL document CHEMBL5465560, “Selectivity Literature for EUbOPEN Chemogenomic Library” (2024).

The target in experiment [1] is Calcium/calmodulin-dependent protein kinase type II subunit beta (Homo sapiens) (UniProt Q13554). Put plainly: Selectivity interaction (KinomeScan (DiscoverX)) EUB0001619a CAMK2B. Particulars: at 1 µM.
Experiment [2] deals with Tyrosine-protein kinase Fes/Fps (Homo sapiens) (UniProt P07332). Put plainly: Selectivity interaction (ActivX KiNativ screen (ex vivo kinase selectivity in human PBMCs)) EUB0001619a FES. Type of experiment: cell-based. The conditions noted are these: PBMC, at 1 µM.
Experiment [3] concerns the target Cyclin-dependent kinase-like 1 (Homo sapiens) (UniProt Q00532). Put plainly: Selectivity interaction (KinomeScan (DiscoverX)) EUB0001619a CDKL1. The conditions noted are these: at 1 µM.
In experiment [4] the target is Serine/threonine-protein kinase SIK3 (Homo sapiens) (UniProt Q9Y2K2). Nature of the experiment: Selectivity interaction (ActivX KiNativ screen (ex vivo kinase selectivity in human PBMCs)) EUB0001619a SIK3. Particulars: PBMC, at 1 µM. The format is cell-based.
Experiment [5] concerns the target Tyrosine-protein kinase Fgr (Homo sapiens) (UniProt P09769). Put plainly: Selectivity interaction (KinomeScan (DiscoverX)) EUB0000695a FGR. The conditions noted are these: at 100 nM.
Experiment [6] deals with Serine/threonine-protein kinase 24 (Homo sapiens) (UniProt Q9Y6E0). Nature of the experiment: Selectivity interaction (KinomeScan (DiscoverX)) EUB0000695a STK24. The conditions noted are these: at 100 nM.
Experiment [7] addresses Serine/threonine-protein kinase 35 (Homo sapiens) (UniProt Q8TDR2). Put plainly: Selectivity interaction (KinomeScan (DiscoverX)) EUB0000607a STK35. The conditions noted are these: at 10 µM.
A further experiment addresses Activated CDC42 kinase 1 (Homo sapiens, UniProt Q07912). Particulars: at 10 µM.
The target in experiment [8] is T1, Tyrosine-protein kinase Tec (Homo sapiens) (UniProt P42680).
T1 sequence (whole entry): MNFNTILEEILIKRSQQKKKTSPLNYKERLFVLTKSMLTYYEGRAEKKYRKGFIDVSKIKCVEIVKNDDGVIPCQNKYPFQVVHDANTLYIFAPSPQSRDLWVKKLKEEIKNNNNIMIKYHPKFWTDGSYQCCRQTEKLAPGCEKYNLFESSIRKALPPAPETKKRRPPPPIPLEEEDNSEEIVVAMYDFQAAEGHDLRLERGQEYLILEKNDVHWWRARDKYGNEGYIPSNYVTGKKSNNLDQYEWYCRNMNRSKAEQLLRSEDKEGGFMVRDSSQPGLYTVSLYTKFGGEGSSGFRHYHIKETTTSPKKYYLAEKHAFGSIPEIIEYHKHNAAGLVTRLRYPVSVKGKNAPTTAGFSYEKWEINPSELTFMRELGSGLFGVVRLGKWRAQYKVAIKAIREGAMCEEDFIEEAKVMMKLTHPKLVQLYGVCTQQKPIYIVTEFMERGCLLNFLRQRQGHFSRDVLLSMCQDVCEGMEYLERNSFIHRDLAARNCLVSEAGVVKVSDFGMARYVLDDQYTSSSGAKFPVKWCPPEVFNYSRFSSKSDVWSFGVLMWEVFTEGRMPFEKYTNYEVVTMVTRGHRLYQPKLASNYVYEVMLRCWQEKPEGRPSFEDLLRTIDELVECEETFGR
Put plainly: Selectivity interaction (ActivX KiNativ screen (kinase selectivity in THP-1 cell lysates)) EUB0000639a TEC. Type of experiment: subcellular. Particulars: lysate, at 0.04 µM.

Experiment [9] deals with Protein arginine N-methyltransferase 3 (Homo sapiens, UniProt O60678). Particulars: at 10 µM.
Experiment [10] concerns the target Microtubule-associated serine/threonine-protein kinase 1 (Homo sapiens) (UniProt Q9Y2H9). Put plainly: Selectivity interaction (KinomeScan (DiscoverX)) EUB0000045b MAST1.
Experiment [11] concerns the target Ephrin type-A receptor 5 (Homo sapiens) (UniProt P54756). Nature of the experiment: Selectivity interaction (ProQinase) EUB0000171b EPHA5.
In experiment [12] the target is CDK9/cyclin T1 (Homo sapiens) (UniProt O60563+P50750). Nature of the experiment: (§1) Selectivity interaction (ProQinase) EUB0000171b CDK9. The format is protein-complex assay.
Experiment [13] concerns the target CDK9/Cyclin K (Homo sapiens) (UniProt P50750+O75909). Described as §1. The format is protein-complex assay.
For experiment [14], the target named is Serine/threonine-protein kinase SIK3 (Homo sapiens) (UniProt Q9Y2K2). Nature of the experiment: Selectivity interaction (Ambit KINOMEscan and KiNATiv profiling in Jurkat cells) EUB0000090b SIK3. Particulars: at 1 µM. Type of experiment: cell-based.
Experiment [15] has as its target AP2-associated protein kinase 1 (Homo sapiens, UniProt Q2M2I8). Put plainly: Selectivity interaction (Ambit KINOMEscan and KiNATiv profiling in Jurkat cells) EUB0000090b AAK1. Type of experiment: cell-based. The conditions noted are these: at 1 µM.
Experiment [16] addresses Mast/stem cell growth factor receptor Kit (Homo sapiens, UniProt P10721). Nature of the experiment: Selectivity interaction (Ambit KINOMEscan and KiNATiv profiling in Jurkat cells) EUB0000090b KIT. Type of experiment: cell-based. The conditions noted are these: at 1 µM.
Experiment [17] has as its target T2, Non-receptor tyrosine-protein kinase TNK1 (Homo sapiens) (UniProt Q13470).
T2 sequence (whole entry): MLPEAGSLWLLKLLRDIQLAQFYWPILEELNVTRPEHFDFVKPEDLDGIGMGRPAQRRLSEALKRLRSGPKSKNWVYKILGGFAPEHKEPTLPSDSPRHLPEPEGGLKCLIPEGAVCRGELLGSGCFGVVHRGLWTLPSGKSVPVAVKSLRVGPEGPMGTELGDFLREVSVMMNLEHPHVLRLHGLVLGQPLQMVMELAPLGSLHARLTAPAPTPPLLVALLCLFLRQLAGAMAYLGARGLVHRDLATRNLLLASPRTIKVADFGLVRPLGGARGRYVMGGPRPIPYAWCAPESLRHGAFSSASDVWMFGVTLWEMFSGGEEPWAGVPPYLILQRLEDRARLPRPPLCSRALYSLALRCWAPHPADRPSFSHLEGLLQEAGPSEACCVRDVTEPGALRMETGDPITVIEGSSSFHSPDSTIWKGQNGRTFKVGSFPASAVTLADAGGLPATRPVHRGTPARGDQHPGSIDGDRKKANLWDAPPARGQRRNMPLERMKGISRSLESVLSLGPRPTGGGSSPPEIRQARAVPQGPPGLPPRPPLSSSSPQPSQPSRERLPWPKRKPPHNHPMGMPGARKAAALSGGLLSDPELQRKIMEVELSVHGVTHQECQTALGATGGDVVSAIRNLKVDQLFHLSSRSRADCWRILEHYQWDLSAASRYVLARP
Put plainly: Selectivity interaction (KinomeScan (DiscoverX)) EUB0000655a TNK1. Particulars: at 10 µM.

Experiment [18] has as its target Protein kinase C theta type (Homo sapiens, UniProt Q04759). Put plainly: Selectivity interaction (KinomeScan (DiscoverX)) EUB0000655a PRKCQ. Particulars: at 10 µM.
The target in experiment [19] is Calcium/calmodulin-dependent protein kinase type II subunit beta (Homo sapiens) (UniProt Q13554). Put plainly: Selectivity interaction (KinomeScan (DiscoverX)) EUB0001079a CAMK2B. Particulars: at 1 µM.

Serine/threonine-protein kinase SIK3 (Homo sapiens), sequence (Q9Y2K2 whole entry, looked up): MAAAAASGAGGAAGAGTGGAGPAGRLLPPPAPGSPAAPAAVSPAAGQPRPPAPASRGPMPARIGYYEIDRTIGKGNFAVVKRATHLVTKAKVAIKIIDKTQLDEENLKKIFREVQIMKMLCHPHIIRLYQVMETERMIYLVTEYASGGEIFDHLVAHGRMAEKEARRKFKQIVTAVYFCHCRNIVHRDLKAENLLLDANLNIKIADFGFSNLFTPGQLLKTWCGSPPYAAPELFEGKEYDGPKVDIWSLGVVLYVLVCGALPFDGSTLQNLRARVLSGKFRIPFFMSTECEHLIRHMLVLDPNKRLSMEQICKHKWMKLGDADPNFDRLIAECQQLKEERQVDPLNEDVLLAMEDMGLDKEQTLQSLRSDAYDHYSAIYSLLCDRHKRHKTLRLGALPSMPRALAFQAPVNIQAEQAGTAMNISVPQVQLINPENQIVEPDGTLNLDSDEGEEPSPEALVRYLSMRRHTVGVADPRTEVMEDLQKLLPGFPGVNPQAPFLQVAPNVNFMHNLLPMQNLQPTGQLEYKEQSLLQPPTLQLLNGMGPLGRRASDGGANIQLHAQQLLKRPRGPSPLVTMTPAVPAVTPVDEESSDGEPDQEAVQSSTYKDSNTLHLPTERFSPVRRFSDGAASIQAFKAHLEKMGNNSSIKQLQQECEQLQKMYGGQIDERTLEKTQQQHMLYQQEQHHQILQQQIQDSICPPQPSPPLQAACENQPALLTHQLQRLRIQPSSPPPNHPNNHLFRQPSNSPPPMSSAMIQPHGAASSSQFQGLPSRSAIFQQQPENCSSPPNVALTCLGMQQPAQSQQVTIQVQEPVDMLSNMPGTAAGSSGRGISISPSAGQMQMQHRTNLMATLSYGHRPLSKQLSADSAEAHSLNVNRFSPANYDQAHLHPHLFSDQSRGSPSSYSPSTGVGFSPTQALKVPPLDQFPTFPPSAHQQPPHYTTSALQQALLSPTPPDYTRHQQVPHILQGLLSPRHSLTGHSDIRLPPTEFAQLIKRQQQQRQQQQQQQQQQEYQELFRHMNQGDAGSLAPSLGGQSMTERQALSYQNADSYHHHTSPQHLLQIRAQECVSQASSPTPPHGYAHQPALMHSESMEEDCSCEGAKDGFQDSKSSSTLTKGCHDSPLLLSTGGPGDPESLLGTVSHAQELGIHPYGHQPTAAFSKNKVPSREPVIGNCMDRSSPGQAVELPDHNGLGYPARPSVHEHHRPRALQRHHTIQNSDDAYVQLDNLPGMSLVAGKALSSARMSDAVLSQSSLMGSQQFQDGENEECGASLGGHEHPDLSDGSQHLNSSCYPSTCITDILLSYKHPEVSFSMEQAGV
Microtubule-associated serine/threonine-protein kinase 1 (Homo sapiens), sequence (Q9Y2H9 whole entry, looked up): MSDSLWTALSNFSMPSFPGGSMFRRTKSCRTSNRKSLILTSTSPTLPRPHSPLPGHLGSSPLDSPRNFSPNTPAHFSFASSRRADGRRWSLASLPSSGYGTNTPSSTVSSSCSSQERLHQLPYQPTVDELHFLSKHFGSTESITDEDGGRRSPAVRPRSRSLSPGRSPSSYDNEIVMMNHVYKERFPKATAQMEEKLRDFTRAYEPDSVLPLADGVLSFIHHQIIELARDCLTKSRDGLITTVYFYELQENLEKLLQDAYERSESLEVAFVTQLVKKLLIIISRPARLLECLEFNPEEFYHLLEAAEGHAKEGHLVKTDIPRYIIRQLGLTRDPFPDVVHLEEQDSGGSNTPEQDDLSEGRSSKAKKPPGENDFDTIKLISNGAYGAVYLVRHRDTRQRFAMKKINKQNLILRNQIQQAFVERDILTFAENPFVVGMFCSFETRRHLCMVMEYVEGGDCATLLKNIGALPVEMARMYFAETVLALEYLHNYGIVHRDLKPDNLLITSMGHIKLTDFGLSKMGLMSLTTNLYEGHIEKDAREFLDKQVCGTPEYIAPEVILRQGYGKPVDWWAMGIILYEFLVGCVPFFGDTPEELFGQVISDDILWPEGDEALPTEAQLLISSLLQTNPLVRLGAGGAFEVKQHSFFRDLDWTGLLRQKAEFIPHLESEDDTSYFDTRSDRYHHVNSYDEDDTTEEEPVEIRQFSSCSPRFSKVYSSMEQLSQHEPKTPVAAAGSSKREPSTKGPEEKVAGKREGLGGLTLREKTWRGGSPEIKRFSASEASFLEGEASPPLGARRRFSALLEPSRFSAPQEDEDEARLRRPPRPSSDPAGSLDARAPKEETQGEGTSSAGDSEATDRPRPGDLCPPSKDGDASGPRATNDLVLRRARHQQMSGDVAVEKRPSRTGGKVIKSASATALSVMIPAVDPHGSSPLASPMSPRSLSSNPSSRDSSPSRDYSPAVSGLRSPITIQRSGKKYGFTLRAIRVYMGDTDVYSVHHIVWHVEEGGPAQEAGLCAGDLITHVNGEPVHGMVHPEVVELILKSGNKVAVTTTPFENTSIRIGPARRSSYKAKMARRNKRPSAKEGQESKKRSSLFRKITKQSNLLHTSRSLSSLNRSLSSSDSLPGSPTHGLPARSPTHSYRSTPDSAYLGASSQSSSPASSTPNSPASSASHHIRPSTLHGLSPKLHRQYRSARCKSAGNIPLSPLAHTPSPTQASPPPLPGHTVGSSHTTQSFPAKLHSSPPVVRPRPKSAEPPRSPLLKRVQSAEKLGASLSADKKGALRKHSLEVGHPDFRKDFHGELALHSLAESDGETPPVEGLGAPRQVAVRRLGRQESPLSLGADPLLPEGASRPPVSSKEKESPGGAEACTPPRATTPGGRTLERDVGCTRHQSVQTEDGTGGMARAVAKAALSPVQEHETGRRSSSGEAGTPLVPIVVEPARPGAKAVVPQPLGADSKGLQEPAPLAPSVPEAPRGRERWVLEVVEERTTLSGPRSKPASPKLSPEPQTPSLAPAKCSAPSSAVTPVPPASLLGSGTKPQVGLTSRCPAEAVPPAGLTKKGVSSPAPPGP
Calcium/calmodulin-dependent protein kinase type II subunit beta (Homo sapiens), sequence (Q13554 whole entry): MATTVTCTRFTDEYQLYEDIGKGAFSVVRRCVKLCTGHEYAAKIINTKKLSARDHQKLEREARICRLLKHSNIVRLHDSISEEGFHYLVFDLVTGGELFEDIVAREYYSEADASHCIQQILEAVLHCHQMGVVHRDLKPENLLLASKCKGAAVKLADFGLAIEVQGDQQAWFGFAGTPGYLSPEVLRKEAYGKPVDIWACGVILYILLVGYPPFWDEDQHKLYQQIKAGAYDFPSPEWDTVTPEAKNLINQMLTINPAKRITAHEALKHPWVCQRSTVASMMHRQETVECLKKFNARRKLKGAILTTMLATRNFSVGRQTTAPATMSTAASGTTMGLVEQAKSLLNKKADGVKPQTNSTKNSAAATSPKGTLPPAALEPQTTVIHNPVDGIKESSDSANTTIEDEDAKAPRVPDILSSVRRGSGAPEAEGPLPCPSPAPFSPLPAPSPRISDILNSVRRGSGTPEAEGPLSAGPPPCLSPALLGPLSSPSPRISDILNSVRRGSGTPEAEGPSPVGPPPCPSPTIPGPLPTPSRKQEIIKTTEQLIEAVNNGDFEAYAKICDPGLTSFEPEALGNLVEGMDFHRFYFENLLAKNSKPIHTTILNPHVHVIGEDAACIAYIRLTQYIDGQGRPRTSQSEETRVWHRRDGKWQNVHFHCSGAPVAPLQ
Ephrin type-A receptor 5 (Homo sapiens), sequence (P54756 whole entry): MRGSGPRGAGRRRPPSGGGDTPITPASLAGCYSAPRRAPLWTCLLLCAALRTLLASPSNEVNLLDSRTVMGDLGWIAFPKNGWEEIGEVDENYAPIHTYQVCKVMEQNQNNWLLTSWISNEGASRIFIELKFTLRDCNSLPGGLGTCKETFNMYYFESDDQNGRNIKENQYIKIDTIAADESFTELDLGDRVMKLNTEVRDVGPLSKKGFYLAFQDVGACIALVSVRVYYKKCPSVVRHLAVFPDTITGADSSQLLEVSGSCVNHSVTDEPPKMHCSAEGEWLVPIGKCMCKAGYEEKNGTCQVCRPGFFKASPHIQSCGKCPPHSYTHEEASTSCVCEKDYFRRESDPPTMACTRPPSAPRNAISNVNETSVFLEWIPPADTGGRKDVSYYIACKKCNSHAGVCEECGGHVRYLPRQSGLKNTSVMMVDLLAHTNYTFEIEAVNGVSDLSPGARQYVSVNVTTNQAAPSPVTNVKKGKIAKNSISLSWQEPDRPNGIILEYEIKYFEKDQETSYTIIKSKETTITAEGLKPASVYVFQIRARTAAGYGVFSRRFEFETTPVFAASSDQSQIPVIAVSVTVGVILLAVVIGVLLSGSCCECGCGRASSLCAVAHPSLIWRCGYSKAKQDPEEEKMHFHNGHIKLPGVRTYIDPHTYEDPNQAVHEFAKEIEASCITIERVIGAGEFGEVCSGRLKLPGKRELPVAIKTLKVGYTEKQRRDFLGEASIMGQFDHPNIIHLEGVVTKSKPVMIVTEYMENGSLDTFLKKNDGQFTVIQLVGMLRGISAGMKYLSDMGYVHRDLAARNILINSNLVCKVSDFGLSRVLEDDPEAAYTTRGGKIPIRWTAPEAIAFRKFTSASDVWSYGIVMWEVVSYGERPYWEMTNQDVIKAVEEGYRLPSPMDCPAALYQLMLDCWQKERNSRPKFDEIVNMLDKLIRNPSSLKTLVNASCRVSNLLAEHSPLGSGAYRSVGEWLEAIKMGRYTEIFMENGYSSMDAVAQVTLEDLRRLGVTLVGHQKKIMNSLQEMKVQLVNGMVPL
Tyrosine-protein kinase Fgr (Homo sapiens), sequence (P09769 2-529 limits assumed): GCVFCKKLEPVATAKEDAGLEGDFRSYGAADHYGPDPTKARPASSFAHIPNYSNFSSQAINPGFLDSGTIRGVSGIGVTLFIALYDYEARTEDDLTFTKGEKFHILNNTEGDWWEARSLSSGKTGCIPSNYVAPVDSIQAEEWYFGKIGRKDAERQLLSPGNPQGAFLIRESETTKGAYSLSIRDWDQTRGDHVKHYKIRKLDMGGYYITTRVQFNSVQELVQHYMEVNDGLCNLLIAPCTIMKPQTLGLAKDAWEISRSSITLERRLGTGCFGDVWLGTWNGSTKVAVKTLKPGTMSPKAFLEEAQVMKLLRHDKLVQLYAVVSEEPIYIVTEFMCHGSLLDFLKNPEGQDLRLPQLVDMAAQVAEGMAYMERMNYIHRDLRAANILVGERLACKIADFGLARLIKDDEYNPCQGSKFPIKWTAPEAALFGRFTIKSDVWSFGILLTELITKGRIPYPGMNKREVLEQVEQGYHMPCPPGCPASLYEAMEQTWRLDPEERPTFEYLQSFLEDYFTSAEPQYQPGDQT

On to `N#Cc1cccc(-c2c[nH]c3ncnc(N4CCOCC4)c23)c1`, for which the % of control in experiment [1] turned out to be 83%; in experiment [3], 100%. Further, the % of inhibition in [2] came to 2%; in [4], 14%.

`Cc1cc(F)c(C(=O)Nc2cccc(-c3nncn3C(C)C)n2)cc1-n1cnc(C2CC2)c1`: the values for the % of control in experiment [5] and in [6] were 96% and 100%, respectively.

`CNC(=O)Nc1ccc(-c2nc(N3CC4CCC(C3)O4)c3cnn(C4CCC5(CC4)OCCO5)c3n2)cc1`: the % of control in experiment [7] was determined as 95%.

Regarding `Cc1cc([C@@H](C)Nc2ccccc2C(=O)O)c2nc(N3CCOCC3)cc(=O)n2c1` [AZD-6482], at Activated CDC42 kinase 1, the % of control worked out at 100%.

In the case of `CC[C@@H]1[C@H](F)C(=O)N[C@@H]1COc1nccc2cc(C(N)=O)c(OC)cc12` [ZIMLOVISERTIB], in [8], the % of inhibition was -59.8%.

As to `CNCCN1CCC(c2cc(CN(C)C(=O)c3cccc(Oc4ccccc4)c3)ccn2)CC1`, in experiment [9], the % activity is greater than 90%.

For the compound `C=CC(=O)Nc1cc(-n2c(=O)ccc3cnc4ccc(-c5ccc(NS(C)(=O)=O)cc5)cc4c32)ccc1C`, the % of control in experiment [10] (at 1 µM) was found to be 100%; in [10] (at 10 µM) it was 94%.

As for `C=CC(=O)Nc1cccc(C(=O)Nc2ccc(Nc3cc(-c4[nH]c(SC)nc4C)ccn3)cc2)c1`, the % of control in experiment [11] (at 1 µM) amounted to 94%; in experiment [11] (at 5 µM), 87%; in experiment [12] (at 1 µM), 63%; in experiment [12] (at 5 µM), 38%; in experiment [13] (at 1 µM) it was 85%; in experiment [13] (at 5 µM) it was 39%.

With `CN(C)C/C=C/C(=O)Nc1ccc(C(=O)N2CCCC(Nc3ncc(Cl)c(-c4c[nH]c5ccccc45)n3)C2)cc1` (centres undefined), the results for the % of control in experiment [14], in experiment [15] and in [16] were 99%, 89% and 93%, respectively.

Take `CN(C)CCOc1ccc(-c2nc(-c3ccncc3)c(-c3ccc4c(c3)CC/C4=N\O)[nH]2)cc1`: the % of control in experiment [17] was found to be 100%; in experiment [18] it was 81%.

Consider `Nc1cnc(N2CCc3cc(S(=O)(=O)Nc4c(F)cc(Cl)cc4F)cc(N4CCCC4=O)c32)nc1` [TP-020n], for which the % of control in experiment [19] stood at 100%.
